Measurements published in US20250032581A1, “COMPOSITIONS AND ARTICLES COMPRISING AN ADNF POLYPEPTIDE” (RAMOT AT TEL-AVIV UNIVERSITY LTD., priority 2021, published 2025).

Legend:
Assay type in all cases: cell-based, mouse
Tau, tubulin = assay: Polymerized vs. soluble tubulin assay; settings: zinc 400 μM, 4 h, peptide 10^−12M
Description: Polymerized vs. soluble tubulin assay—To quantify tubulin polymerization and Tau-MT association, a simple assay was performed as previously described. The cells grown to confluence in six-well plates were washed with MT buffer (80 mM PIPES pH 6.8, 1 mM MgCl^2, 2 mM EGTA, 5% Glycerol) and lysed at room temperature for 5 min through centrifugation (300 g), with 150 μl of MT buffer with 0.5% Triton X-100 to extract soluble (cytosolic) tubulin (S). The pelleted cells were rinsed once again with an equal volume of modified RIPA lysis buffer (50 mM Tris-HCL pH 7.4, 150 mM NaCl, 2 mM EGTA, 1% Triton X-100, 0. 1% SDS, 0.1% sodium Deoxycholate) to collect the polymerized (cytoskeletal) tubulin (P). The cytosolic and cytoskeletal fractions were each mixed with sample buffer and heated at 95° C. for 5 min. An equal volume of each fraction was analyzed by immunoblotting with Tau, tubulin and actin antibodies, and the results following ECL development were quantified by densitometry (GelQuant.NET software provided by biochemlabsolutions(dot)com).
It is known that in the presence of extracellular zinc NAP protects MT against degradation by promoting Tau binding to the MT shaft. Polymerized vs. soluble tubulin assay was effected to compare protective activities of NAP and SKIP against MT degradation and Tau-MT dissociation (FIGS. 11F-G). After treatments with zinc (400 μM, 4 h) with and without NAP or SKIP (10^−12M, 4 h) the cellular-tubulin pool was separated into polymerized and soluble tubulin fractions. The amount of Tau, tubulin, and actin was identified by immunoblotting (FIG. 11F), followed by densitometric quantification (FIG. 11G).

[1] = tested on: Tau-MT interaction in differentiated N1E-115 cells; assay: Fluorescence recovery after photobleaching (FRAP) of mCherry-Tau; settings: zinc 400 μM, 1 h; peptide 10^−12M
Description: (§1) Cell culture—Mouse neuroblastoma NIE-115 cells were maintained in Dulbecco's modified Eagle's medium, 10% fetal bovine serum, 2 mM glutamine and 100 U ml-1 penicillin, 100 mg ml-1 streptomycin (Biological Industries, Beit Haemek, Israel). The cells were incubated in 9 5% air/5% CO2 in a humidified incubator at 37° C.
(§2) Cell differentiation and co-transfection of overexpression plasmids—Cultured NIE-115 cells were plated on 35 mm dishes (81156, 60 p-Dish, Ibidi, Martinsried, Germany) at a concentration of 1.25×10^4 cells per dish and then were differentiated with reduced fetal bovine serum (2%) and DMSO (1.25%) containing medium for 5 days before transfection. 48 hrs before experiments N1E-115 cells were co-transfected with 1 μg EB3-RFP or mCherry-Tau (3R) plasmid with or without 2 μg of plasmids, coding to GFP conjugated to full-length human ADNP, or ADNP carried mutations. 1:3 ratios between total amount of transfected DNA and transfection reagent were used according to manufacture guidance (Lipofectamine2000, Thermo Fisher Scientific, Waltham, MA, USA) in all subsequent experiments.
Fluorescence recovery after photobleaching (FRAP)—Differentiated NIE-115 cells were transfected with mCherry-Tau with or without GFP-conjugated to full-length ADNP or mutated ADNP, and imaged 48 hrs after transfection. An ROI for photobleaching was drowned in the proximal cell branches. mCherry-Tau was bleached with a […], and fluorescence recovery was collected within wavelengths of 610-650 nm. 80 images were taken every 0.74 sec immediately after bleaching. After FRAP imaging all samples were also treated with NAP in final concentrations of 10^−12M, and after 4 hrs time-lapse imaging was done again under the same conditions. FRAP imaging for assessment difference between NAP and SKIP (SEQ ID NO: 21) activity was performed after an hour of ZnCl2 treatment (400 μM final concentration; Sigma, Rehovot, Israel) with or without NAP/SKIP (10^−12M final concentration). Fluorescence signals were quantified with Fiji, obtained data were normalized with easyFRAP [82, 83] and FRAP recovery curves were fitted by a one-phase exponential association function by GraphPad Prism6 (GraphPad Software, Inc., La Jolla, CA, USA) while samples with R^2<0.9 were excluded.
Next, the effect of full-length/truncated ADNP forms with or without NAP treatment on Tau-MT interaction was examined by fluorescence recovery after photobleaching (FRAP) (FIGS. 8A-C). FRAP was performed with mCherry-tagged Tau protein (FIG. 8A). […] Therefore, the immobile mCherry-Tau fraction reflects the rate of Tau association with MTs.

[2] = tested on: differentiated N1E-115 cells expressing RFP-tagged EB3; assay: Live imaging of EB3 comet-like structures (MT dynamics); settings: 10^−12M, 4 hrs, vs. non-treated control; no significant differences between NAP and SKIP
Excerpt: Plasmid construction—Protein expressing plasmids were constructed as previously described based on pEGFP-C1 backbone and express full-length ADNP or the following truncated ADNP proteins: p.Glu830synfs*83, p.Lys408Valfs*31, p.Ser404* (as before). Inserts of cDNA carrying unique mutations were obtained from mRNA extracted from patient-derived lymphoblastoid cell lines and cDNA with full-length human ADNP was obtained from a control lymphoblastoid cell line with no mutation. Protein expressions were verified by fluorescent imaging and immunoblotting analysis as before.
as §1, §2
Live Imaging—48 hrs after transfection, differentiated NIE-115 cells (expressing EB3-RFP with or without GFP-conjugated to full-length ADNP or mutated ADNP) were incubated at 37° C. with a 5% CO2/95% air mixture in a thermostatic chamber placed on the stage of a Leica TCS SP5 confocal microscope (objective 100× (PL Apo) oil immersion, NA 1.4). Time-lapse images were automatically captured 3 sec during 1 min, using the Leica LAS AF software. After imaging all samples were also treated with NAP (SEQ ID NO: 2) or SKIP (SEQ ID NO: 21) in final concentrations of 10^−12M, and after 4 hrs time-lapse imaging was done again under the same conditions. Data was collected and analyzed by Imaris software.
To evaluate the effect of ADNP truncated proteins on MT dynamics time-lapse imaging of EB3 comet-like structures formed by RFP-tagged EB3 proteins that bind to MT plus-ends was performed. Two parameters of EB3 activity were used to assess MT dynamics—track length and track speed of EB3 comets, which reflect the length of freshly growing MTs and the speed of MT assembly, respectively. Furthermore, the present inventors aimed to determine whether NAP ([…] for 4 hrs) could prevent the deleterious effect of ADNP mutations.

SKIP was tested, and the “protection against Tau dissociation from MTs (soluble Tau ratio)” value (Tau, tubulin) was “only NAP exhibited protection against Tau dissociation from MTs”, the “protection of polymerized tubulin against zinc” value (Tau, tubulin) was “protected against zinc-induced decay” and the “Tau immobile fraction (Tau-MT interaction) in the presence of zinc” value [1] was “prevented zinc adverse effect”. The “EB3 track length and speed” value [2] was “increased EB3 track length and speed”.
